Test results from the supplement of paper PMC8671470.

How the values were obtained:
Assay in all cases: cell viability (% survival relative to DMSO control, bortezomib = 0%); higher = less cytotoxic
Settings in all cases: 72 h
HL-60 = tested on: HL-60
Summary of the method: (§1)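 Fifteen myeloid leukaemia cell lines were exposed to compounds at 1, 10, 100, 1000 or 10000 nM in 384-well plates for 72 h at 37 °C and 5% CO2. Viability was read by CellTiter-Glo luminescence and normalised, with vehicle as 100% and a 10 µM positive control as 0%. Values are percent survival averaged over duplicates.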

K-562 = tested on: K-562
Summary of the method: as §1

SHI-1 = tested on: SHI-1
Summary of the method: as §1

Mono-Mac-6 = tested on: Mono-Mac-6
Summary of the method: as §1

| SMILES | cell viability (HL-60; 1 nM) | cell viability (HL-60; 10 nM) | cell viability (HL-60; 100 nM) | cell viability (HL-60; 1000 nM) | cell viability (HL-60; 10000 nM) | cell viability (K-562; 1 nM) | cell viability (K-562; 10 nM) | cell viability (K-562; 100 nM) | cell viability (K-562; 1000 nM) | cell viability (K-562; 10000 nM) | cell viability (SHI-1; 1 nM) | cell viability (SHI-1; 10 nM) | cell viability (SHI-1; 100 nM) | cell viability (SHI-1; 1000 nM) | cell viability (SHI-1; 10000 nM) | cell viability (Mono-Mac-6; 1 nM) | cell viability (Mono-Mac-6; 10 nM) | cell viability (Mono-Mac-6; 100 nM) | cell viability (Mono-Mac-6; 1000 nM) | cell viability (Mono-Mac-6; 10000 nM) |
| --- | --- | --- | --- | --- | --- | --- | --- | --- | --- | --- | --- | --- | --- | --- | --- | --- | --- | --- | --- | --- |
| CC(/C=C1\SC(=S)N(CC(=O)O)C1=O)=C\c1ccccc1 [Epalrestat] | 120% | 102% | 109% | 112% | 115% | 114% | 102% | 109% | 99.5% | 100% | 120% | 100% | 106% | 93.5% | 113% | 106% | 103% | 103% | 93.9% | 116% |
| CCOC(=O)[C@@]1(CCCCCCOc2ccc(Cl)cc2)CO1 [Etomoxir] | 77.7% | 74.7% | 83.3% | 98.5% | 69.5% | 113% | 95.8% | 86.5% | 93.2% | 71.8% | 107% | 108% | 110% | 105% | 104% | 93.5% | 94.4% | 92.9% | 95.7% | 96.3% |
| Cc1c(-c2ccccc2)oc2c(C(=O)OCCN3CCCCC3)cccc2c1=O.Cl [Flavoxate] | 89.2% | 121% | 90.7% | 102% | 103% | 91% | 90% | 89.8% | 98.8% | 83.2% | 94.8% | 99.6% | 97.6% | 98.4% | 101% | 92.6% | 105% | 101% | 96% | 94.6% |
| O=C(O)CCc1ccc(NCc2cccc(Oc3ccccc3)c2)cc1 [GW9508] | 90% | 94.3% | 104% | 103% | 83.5% | 109% | 88.8% | 100% | 94.2% | 120% | 102% | 99.4% | 120% | 97.8% | 107% | 101% | 104% | 108% | 110% | 104% |
| c1ccc2c(c1)OCC(=C1NCCN1)O2 [Idazoxan] | 89.1% | 80.3% | 80% | 97.2% | 75.9% | 80% | 98.1% | 90.7% | 100% | 90.9% | 105% | 103% | 89.8% | 101% | 95.1% | 102% | 106% | 91.1% | 89.1% | 102% |
| C[C@]12O[C@H](C[C@]1(O)CO)n1c3ccccc3c3c4c(c5c6ccccc6n2c5c31)CNC4=O [Lestaurtinib] | 91.8% | 77.6% | 44.5% | 17.5% | 0.00654% | 94.2% | 94.3% | 64.5% | 13.5% | 2.74% | 107% | 97.9% | 37.1% | 19.5% | 0.00197% | 83.4% | 54.1% | 4.06% | 0.62% | 0.201% |
| O=C(O)c1nn(Cc2ccc(Cl)cc2Cl)c2ccccc12 [Lonidamine] | 100% | 119% | 90.2% | 82.2% | 105% | 94.2% | 104% | 118% | 98.4% | 82.6% | 107% | 114% | 105% | 95.5% | 99.4% | 106% | 111% | 102% | 87.5% | 72.5% |
| C1CCc2nnc(C34CC5CC(CC(C5)C3)C4)n2CC1 [MERCK-544] | 94.7% | 154% | 103% | 74.8% | 129% | 109% | 117% | 89.3% | 103% | 129% | 90.2% | 110% | 104% | 90.2% | 118% | 95.9% | 100% | 93.3% | 97.7% | 96% |
| CC(Cc1ccc(O)c(O)c1)C(C)Cc1ccc(O)c(O)c1 (centres undefined) [Masoprocol] | 89% | 81.2% | 118% | 90% | 6.31% | 87.2% | 109% | 105% | 95.8% | 76.7% | 97.1% | 96.2% | 118% | 93.3% | 70.1% | 86.6% | 109% | 102% | 84.2% | 22.8% |
| CC(C(=O)O)C(=O)O [Methylmalonate] | 84.9% | 104% | 92.2% | 116% | 90.1% | 95.3% | 101% | 106% | 95.2% | 107% | 98.9% | 83.3% | 105% | 88.7% | 97% | 96.2% | 93% | 106% | 96.1% | 90.3% |
| COc1c(C)c2c(c(O)c1C/C=C(\C)CCC(=O)O)C(=O)OC2 [Mycophenolic acid] | 108% | 117% | 80% | 51.3% | 18.4% | 91.3% | 102% | 91.5% | 36.5% | 13.6% | 105% | 104% | 92% | 77.2% | 14.4% | 104% | 99.7% | 108% | 80% | 16.4% |
| C1CCC(C(CC2CCCCN2)C2CCCCC2)CC1.O=C(O)/C=C\C(=O)O (centres undefined) [Perhexiline] | 91.2% | 90.1% | 110% | 93% | -0.124% | 98.5% | 97.3% | 110% | 103% | 0.792% | 95% | 92% | 103% | 102% | 0.332% | 91.8% | 87.4% | 85.9% | 98.6% | 1.23% |
| OCCN1CCN(CCCN2c3ccccc3Sc3ccc(Cl)cc32)CC1 [Perphenazine] | 97.8% | 133% | 92% | 103% | 18.8% | 108% | 97.3% | 81.8% | 92% | 0.308% | 100% | 110% | 97.1% | 123% | 55.2% | 97.2% | 106% | 102% | 100% | 54.6% |
| C=CCc1ccc2c(c1O)C(=O)c1ccccc1C2=O [R162] | 98.1% | 104% | 95.6% | 92.5% | 101% | 99.5% | 95.2% | 94% | 118% | 98.5% | 101% | 99.7% | 104% | 118% | 101% | 101% | 93.4% | 103% | 123% | 115% |
| O=C(c1ccc(OCCN2CCCCC2)cc1)c1c(-c2ccc(O)cc2)sc2cc(O)ccc12 [Raloxifene] | 99.3% | 90.6% | 99.8% | 110% | 62.1% | 99.7% | 99.3% | 98.5% | 98.8% | 77.3% | 97% | 102% | 107% | 110% | 89.5% | 109% | 95.2% | 107% | 104% | 77% |
| NC(=O)c1ncn([C@@H]2O[C@H](CO)[C@@H](O)[C@H]2O)n1 [Ribavirin] | 92.6% | 101% | 130% | 110% | 149% | 82.4% | 95.1% | 119% | 107% | 103% | 105% | 112% | 111% | 111% | 111% | 92.1% | 103% | 96.4% | 101% | 112% |
| Nc1ncnc2c1ncn2[C@@H]1O[C@H](CSCC[C@H](N)C(=O)O)[C@@H](O)[C@H]1O [S-Adenosyl Homocysteine] | 103% | 101% | 115% | 111% | 74.9% | 102% | 104% | 105% | 104% | 98.8% | 100% | 122% | 111% | 105% | 99.9% | 96.7% | 101% | 96.9% | 104% | 93.7% |
| CCCc1nn(C)c2c(O)nc(-c3cc(S(=O)(=O)N4CCN(C)CC4)ccc3OCC)nc12 [Sildenafil] | 99.7% | 88.7% | 100% | 82.9% | 111% | 91.1% | 93% | 94.9% | 110% | 103% | 103% | 95% | 104% | 111% | 114% | 87.9% | 110% | 100% | 110% | 105% |
| Cc1coc2c1C(=O)C(=O)c1c-2ccc2c(C)cccc12 [Tanshinone I] | 99% | 105% | 117% | 105% | 79.7% | 98.6% | 100% | 106% | 82.7% | 79.8% | 110% | 88.4% | 108% | 105% | 84.2% | 126% | 107% | 106% | 102% | 84.7% |
| CN(C/C=C/C#CC(C)(C)C)Cc1cccc2ccccc12 [Terbinafine] | 104% | 107% | 118% | 105% | 93.8% | 97.8% | 98% | 106% | 86.1% | 88.8% | 99.4% | 101% | 108% | 99.5% | 98.9% | 103% | 96.2% | 102% | 98.7% | 91.2% |
| CCOC(=O)N1c2ccc(C(F)(F)F)cc2[C@@H](N(Cc2cc(C(F)(F)F)cc(C(F)(F)F)c2)C(=O)OC)C[C@H]1CC [Torcetrapib] | 92.7% | 109% |  | 107% | 91% | 103% | 109% | 121% | 98.6% | 94.4% | 94.8% | 105% | 132% | 114% | 99.8% | 109% | 109% | 107% | 90.8% | 78.2% |
| Oc1cc(Cl)ccc1Oc1ccc(Cl)cc1Cl [Triclosan] | 90.3% | 76.6% | 85.1% | 106% | 102% | 103% | 105% | 93.8% | 106% | 66.6% | 105% | 96% | 98.3% | 101% | 103% | 94.5% | 98.3% | 101% | 116% | 97.2% |
| COc1cc2c(NC3CCN(C)CC3)nc(N3CCCN(C)CC3)nc2cc1OCCCN(C)C [UNC0224] | 92.3% | 123% | 97.8% | 89.5% | 65.1% | 95% | 106% | 102% | 102% | 88.8% | 91.9% | 108% | 102% | 93.1% | 73.7% | 100% | 116% | 101% | 98.5% | 81.4% |
| CC(C)C[C@H](NC(=O)[C@@H](O)[C@H](N)Cc1ccccc1)C(=O)O [Ubenimex] | 98.3% | 124% | 98.7% | 77.9% | 97% | 111% | 102% | 113% | 89.6% | 102% | 99.4% | 104% | 93.2% | 80.5% | 91.3% | 99.5% | 116% | 96.4% | 83.1% | 90.1% |
| O=P(O)(O)C(O)(Cn1ccnc1)P(=O)(O)O [Zoledronic acid] | 84.3% | 111% | 105% | 98.3% | 111% | 105% | 101% | 106% | 98.6% | 102% | 108% | 116% | 102% | 100% | 104% | 96.7% | 104% | 91.1% | 91% | 96.7% |
